Experimental data from patent US20250000874A1, “BACTERIAL METABOLITES AND THEIR USE IN REDUCING INFLAMMATION” (LOYOLA UNIVERSITY OF CHICAGO, priority 2023, published 2025).
Entries after “also recorded” stand apart in the source; their conditions may differ.

How the values were obtained:
Raw 264.7 Cells = assay: NC on TNFα release in Raw 264.7 cells in response to TLR agonists; type: cell-based, mouse; conditions: 50 μM NC 18 hours
Experimental: FIG. 27A and FIG. 27B. Metabolite NC on TNFα release in response to LPS in human and murine macrophages in vitro. Macrophages were plated at a uniform density of 0.2×10^6 cells/mL in 24 well plates. These cells (FIG. 27A) were allowed to adhere, or, in the case of THP-1 cells FIG. 27B), differentiate using PMA. They were then treated for 18 hours with 50 μM of metabolite NC before being stimulated with 0.1 ug of LPS-EK. Supernatant was collected between 4-6 hours after addition of LPS and debris was removed via centrifugation at 1250 rpm for 5 minutes. TNFα was quantified in the supernatant using sandwich ELISA with standards of known concentrations.
FIG. 28A and FIG. 28B. Metabolite NC on TNFα release in macrophages in response to various TLR agonists. Raw 264.7 cells (FIG. 28A) and THP-1 FIG. 28B) cells were plated at a uniform density of 0.2×10^6 cells per mL and stimulated with various TLR agonists: Pam3CSK4, Poly I:C, LPS, Fla, FSL-1, imiquimod (ImiQ), and ODN-2006. NC reduced TNFα release in response to TLR3 (p<0.0001 via student's t-test for both Raw 264.7 cells and THP-1 cells) and TLR4 agonists in both cell lines.
To investigate the effects of compound NC, macrophages were stimulated with LPS, an endotoxin associated with gram-negative bacteria. Human and murine macrophage-like cells (THP-1 cells and Raw 264.7 cells, respectively) were plated in 24 well plates at a uniform density of 0.2×10^6 cells/mL. Following 18 hours of pretreatment with 50 μM metabolite NC, they were stimulated with 10 μg/mL of LPS. After 4-6 hours, supernatant was collected and TNFα was quantified using sandwich ELISA. NC reduces TNFα release from both THP-1 and Raw 264.7 macrophage-like cells in response to TLR4 agonist LPS in vitro.
Metabolite NC reduces inflammation in response to TLR4 agonist LPS. To further investigate the specificity of NC's action in TLR signaling, Raw 264.7 (FIG. 28A) and THP-1 (FIG. 28B) cells were once again plated at a uniform density of 0.2×10^6 cells/mL, treated with 50 μM metabolite NC for 18 hours, and stimulated with agonists for TLR1/2, TLR3, TLR4, TLR5, TLR6/2, TLR7 and TLR9. After 4-6 hours, supernatant was collected and TNFα was quantified via sandwich ELISA.

THP-1 cells = assay: NC on TNFα production by THP-1s in response to TLR agonists (Example 7); type: cell-based, human
Experimental: FIG. 32. NC Reduces TNFα Response to Toll 3 Agonist. Macrophages were cultured at a uniform density and allowed to adhere (in the case of BMDMs) or differentiate with PMA (in the case of THP-1s). macrophages were then incubated overnight in NC at a concentration of 50 uM at 37° C. The following day, the BMDMs were stimulated with P(I:C) at 50 ug/mL, 100 ug/mL, or 200 ug/mL for four hours and the THP-1s were stimulated at 200 […]. Supernatants were collected and TNFα concentrations were determined via ELISA.
FIG. 34. TNFα production from THP-1 stimulation. Thp-1s plated at uniform density and incubated in PMA to differentiate and treated with NC overnight. The following day, cells were then treated with FSL at a concentration of 20 ng/ml and 50 ng/ml. After 4 hours, supernatant was collected and the concentration of TNFα was determined via ELISA.
Bone marrow derived macrophages were collected from adult mice (6-8 weeks old). Femurs were obtained and cut with scissors. The connecting muscles were removed and the bones were flushed with PBS. PBS was collected and cells were counted and adjusted to the desired concentrations. Cells were then plated in DMEM supplemented with Macrophage Colony Stimulating Factor (M-CSF) at 10 ng/ml. […] After 7 days the cells were ready for use. […]
Once ready, macrophages were then incubated with NC at a concentration of 50 uM overnight. […] Samples were treated for 4 hours and then Supernatant was then collected and the concentration of TNFα was then determined via the commercially available ELISA MAX Deluxe kit (Biolegend), with measurements reported in pg/mL.
To investigate the effects NC, macrophages were stimulated in vitro with various TLR agonists, and the production of cytokines was measured via ELISA. […] After 4 hours, supernatant was collected and the concentration of TNFα was determined via ELISA.
Further investigation of NC's impact on TLR signaling involved treating BMDMs with the TLR 4 agonist LPS. […] After 4 hours supernatant was collected and concentration of TNFα was measured via ELISA. […]

Q: What does the source list for `CCCCCCCCCCCCCCCC(=O)N[C@@H](C(=O)O)[C@H](C)O` [NC, N-Palmitoyl-D-Threonine]?
A: TNFα release in response to TLR3 agonist Poly I:C (Raw 264.7 Cells; 4-6 hours, ELISA): reduced; TNFα release in response to TLR4 agonist LPS (Raw 264.7 Cells; LPS, 4-6 hours, ELISA): reduced; also recorded: significantly less; TNFα release in the absence of LPS stimulation (Raw 264.7 Cells; unstimulated): did not increase; also recorded: does not increase; TNFα release in response to other TLR agonists (Raw 264.7 Cells; TLR1/2, TLR5, TLR6/2, TLR7, TLR9 agonists): did not significantly reduce; production and secretion of TNFα (THP-1 cells; NC 50 μM overnight, Poly (I:C) 200 mg/ml or 400 mg/mL, 4 hours): reduced; production of TNFα (THP-1 cells; NC alone, 50 μM overnight): not found to increase; TNFα production in response to TLR 2/6 agonist FSL-1 (THP-1 cells; NC overnight, FSL 20 ng/ml and 50 ng/ml, 4 hours): exhibited inhibitory effects
